Laboratory results taken from ChEMBL document CHEMBL5532721, “Novel KRAS Inhibitors for Treating Non-Small-Cell Lung Cancer” (ACS Med Chem Lett, 2024).

Assays:
[1] = Inhibition of recombinant GMPPNP-loaded KRAS G12D mutant/recombinant GST-tagged RAF1 RBD (unknown origin) interaction preincubated for 20 mins followed by RAF1 RBD addition and measured after 3 hrs by HTRF assay; design: species or system Homo sapiens
[2] = Inhibition of recombinant GDP-loaded KRAS G12D mutant/recombinant SOS (unknown origin) interaction preincubated for 20 mins followed by SOS addition and measured after 30 mins by HTRF assay; design: species or system Homo sapiens

| SMILES | IC50 [1] | IC50 [2] |
| --- | --- | --- |
| C#Cc1c(F)ccc2cc(O)cc(-c3ncc4c(N5CCOCC(CO)C5)nc(OC[C@]56CCC[C@H]5N(C)CCC6)nc4c3F)c12 (some centres not stated) | 3 nM | 5 nM |
| C#Cc1c(F)ccc2cc(O)cc(-c3ncc4c(N5CCCC(O)(C(F)(F)F)C5)nc(OC[C@]56CCC[C@H]5N(C)CCC6)nc4c3F)c12 (some centres not stated) | 3 nM | 2 nM |
| C#Cc1c(F)ccc2cc(O)cc(-c3ncc4c(N5CCCOCC5)nc(OC[C@]56CCC[C@H]5N(CC)CCC6)nc4c3F)c12 | 6 nM | 2 nM |
| C#Cc1c(F)ccc2cc(O)cc(-c3ncc4c(N5CCCC(C#N)C5)nc(OC[C@@]56CCCN5C[C@H](F)C6)nc4c3F)c12 (some centres not stated) | 2 nM | 2 nM |
| C#Cc1c(F)ccc2cc(O)cc(-c3ccc4c(N5C[C@@H]6C[C@H]5C(=O)N6)nc(OC[C@]56CCC[C@H]5N(C)CCC6)nc4c3F)c12 | 3 nM | 6 nM |
| C#Cc1c(F)ccc2cc(O)cc(-c3ncc4c(N5CCOCC(CC#N)C5)nc(OC[C@]56CCC[C@H]5N(C)CCC6)nc4c3F)c12 (some centres not stated) | 2 nM | 2 nM |
